Measurements as given in patent publication US10064858B2, “Methods and compositions for treating bacterial infections with iron chelators” (THE UNITED STATES OF AMERICA, AS REPRESENTED BY THE …, priority 2011, dated 2018).
Like-named read-outs stand apart in the source and are kept apart here.

Experiments:
Format in all cases: cell-based
[1] = tested on: AB5075 a MDR-clinical isolate of A. baumannii; test: Time-kill assay in CAMHB; conditions: for time-kill course of CFU/mL: CAMHB, 24 hours (FIG. 8A); for effect on CFU/ml (time-kill, FIG. 13): 2 and 6 hours
Method: Reductions in colony forming units (CFU)/mL were determined over time (time-kill assay) after exposure to VK28 and deferiprone (DFP), the two iron chelators that performed best in MIC assays when compared to controls. To better represent the iron content found in the human body, MIC and time-kill assays were also determined in minimal media and tissue culture media. Time-Kill assays were performed as previously described in G. P. Neupane et al., “In vitro time-kill activities of ciprofloxacin alone and in combination with the iron chelator deferasirox against Vibrio vulnificus,” European Journal of Clinical Microbiology and Infectious Diseases, 407-410 (2010); and R. L. White, et al., “Comparison of Three Different In Vitro Methods of Detecting synergy: Time-Kill, Checkerboard, and E test,” Journal of Antimicrobial Agents and Chemotherapy, 1914-1918 (1996). Initial inocula, for example 1×10^6 CFU/mL or 1×10^7 CFU/mL were challenged with iron chelator with and/or without an antibiotic. Cells were allowed to grow in CAMHB at 37° C. for 24 hours. Time-kill results were analyzed by determining the change in log 10 numbers of CFU/ml at 0, 6, and 24 h, compared to counts at 0 h. Antimicrobials were considered bactericidal at the lowest concentration that reduced the size of the original inoculum by >3 log 10 CFU/ml (99.9%) over each of the time periods and were considered bacteriostatic if the inoculum's size was reduced by 0 to <3 log 10 CFU/ml.
(§1) In this example, time-kill assays were performed as described in Example 9 using Apo6619 as the iron chelator against AB5075 (MRSN959), the MDR-clinical isolate of A. baumannii. The initial inocula was 1×10^6 CFU/mL, and were challenged with 0.5×MIC, 1×MIC and 2×MIC of Apo6619. Time-kill results were analyzed by determining the change in log 10 numbers of CFU/mL at 0, 2 and 4 hours.
as §1, with “VK28 or DFP” for “Apo6619”, “AB5075,” for “AB5075 (MRSN959),”, “either VK28 or DFP.” for “Apo6619.”, “at” for “at 0,”, “6” for “4”

[2] = tested on: multi-drug resistant bacterial species; test: Checkerboard, synergy with rifampin (summary)
From the text: Drug interactions were initially evaluated with the “checkerboard” microdilution design, which provided a matrix of all drug combinations assayed in terms of fractions of the previously determined MIC. The checkerboard microdilution design is described in R. J. Tallarida, “Drug Synergism: Its Detection and Applications,” Journal of Pharmacology and Experimental Therapeutics, 865-872 (2001); and in R. L. White, et al., (1996), supra. FIGS. 39A and 39B show the wellplates having different concentrations of iron chelator and antibiotic, as labeled along the x-axis and y-axis.
The checkerboard assay was used to asses other combinations of iron chelators and antibiotics. The fractional inhibitory concentration index (FIC), which was calculated as follows: FIC=(MIC A in combination/MIC A)+(MIC B in combination/MIC B). Interaction was defined as synergistic if the FIC was <1.0, preferably <0.5, no interaction if the FIC was >1.0 and <4.0, and antagonistic if the FIC was >4.0.
The assay was run against the multi-drug resistant bacterial species AB 19606, AB 17978, KP ndm, PA PAO1, PA 27853, EC 35718, and EC 43888. Blank spaces indicate concentrations not tested. […] Against the species PA PAO1 and PA 27853, all the antibiotics except for Ami.

Acinetobacter baumannii = test: MIC in RPMI1640 media (Table 2)
Method: (§2) […] […] Tests were performed in triplicate. MIC of iron chelators were determined for noscomial ESKAPE pathogens.
(§3) This media is closer to the iron levels in the human body. MICs are in ug/mL.

K. pneumonia = test: MIC in RPMI1640 media (Table 2); conditions: Klebsiella pneumoniae
Method: as §2, §3

P. aeruginosa = test: MIC in RPMI1640 media (Table 2); conditions: Pseudomonas aeruginosa
Method: as §2, §3

E. coli = test: MIC in RPMI1640 media (Table 2)
Method: as §2, §3

[3] = tested on: clinical isolates of A. baumannii; test: MIC for clinical isolates in RPMI (low iron) media (Table 4); design: key to MIC of Iron Chelators: NG = no growth in table 4; conditions: for MIC: Acinetobacter baumannii
Method: as §2
For a number of strains, the iron chelators produced no growth of bacteria (NG).

[4] = ATCC17978, ATCC 17978, read-out: MIC of Iron Chelators
[5] = ATCC19606, ATCC 19606, read-out: MIC of Iron Chelators
[6] = ATCC700603, ATCC 700603, read-out: MIC of Iron Chelators
[7] = BAA2146, BAA-2146, read-out: MIC of Iron Chelators
[8] = ATCC27853, ATCC 27853, read-out: MIC of Iron Chelators
[9] = PAO1, read-out: MIC of Iron Chelators
[10] = Escherichia coli, 35718, read-out: MIC of Iron Chelators
[11] = Escherichia coli, ATCC43888, ATCC 43888 (0157:H7), read-out: MIC of Iron Chelators
[12] = AB3638, read-out: MIC of Iron Chelators
[13] = AB3806, read-out: MIC of Iron Chelators
[14] = AB4025, read-out: MIC of Iron Chelators
[15] = AB4026, read-out: MIC of Iron Chelators
[16] = AB4027, read-out: MIC of Iron Chelators
[17] = AB4052, read-out: MIC of Iron Chelators
[18] = AB4269, read-out: MIC of Iron Chelators
[19] = AB4448, read-out: MIC of Iron Chelators
[20] = AB4456, read-out: MIC of Iron Chelators
[21] = AB4490, read-out: MIC of Iron Chelators
[22] = AB4498, read-out: MIC of Iron Chelators
[23] = AB4795, read-out: MIC of Iron Chelators
[24] = AB4857, read-out: MIC of Iron Chelators
[25] = AB4878, read-out: MIC of Iron Chelators
[26] = AB4932, read-out: MIC of Iron Chelators
[27] = AB4957, read-out: MIC of Iron Chelators
[28] = AB4991, read-out: MIC of Iron Chelators
[29] = AB5001, read-out: MIC of Iron Chelators
[30] = AB5075, read-out: MIC of Iron Chelators
[31] = AB5197, read-out: MIC of Iron Chelators
[32] = AB5256, read-out: MIC of Iron Chelators
[33] = AB5674, read-out: MIC of Iron Chelators
[34] = AB5711, read-out: MIC of Iron Chelators

Compound: CNC(=O)c1c(O)c(=O)cc(C)n1C1CC1 [Apo6619, 1-cyclopropyl-3-hydroxy-6-methyl-4-oxo-1,4-dihydro-pyridine-2-carboxylic acid methylamide]
- time-kill effect ([1]; 0.5×MIC, 1×MIC and 2×MIC, 0, 2 and 4 hours): bactericidal (considered bactericidal at the lowest concentration that reduced the size of the original inoculum by >3 log 10 CFU/ml (99.9%))
- synergy with rifampin, checkerboard [2]: moderate degrees of synergy
- MIC (Acinetobacter baumannii; [4]): 64 mg/L
- MIC (Acinetobacter baumannii; [5]): 125 mg/L
- MIC (K. pneumonia; [6]): 500 mg/L
- MIC (K. pneumonia; [7]): 500 mg/L
- MIC (P. aeruginosa; [8]): > 500 mg/L
- MIC (P. aeruginosa; [9]): 500 mg/L
- MIC (E. coli; [10]): 250 mg/L
- MIC (E. coli; [11]): 250 mg/L
- MIC of Iron Chelators ([3]; AB967): NG
- MIC of Iron Chelators ([3]; AB2828): NG
- MIC of Iron Chelators ([3]; AB3340): NG
- MIC of Iron Chelators ([3]; AB3560): NG
- MIC of Iron Chelators ([3]; AB3927): NG
- MIC [3, 12]: 250 mg/L
- MIC ([3]; AB3785, read-out: MIC of Iron Chelators): 125 mg/L
- MIC [3, 13]: 250 mg/L
- MIC ([3]; AB3917, read-out: MIC of Iron Chelators): 250 mg/L
- MIC [3, 14]: 250 mg/L
- MIC [3, 15]: 250 mg/L
- MIC [3, 16]: 250 mg/L
- MIC [3, 17]: 250 mg/L
- MIC [3, 18]: 125 mg/L
- MIC [3, 19]: 250 mg/L
- MIC [3, 20]: 250 mg/L
- MIC [3, 21]: 250 mg/L
- MIC [3, 22]: 250 mg/L
- MIC [3, 23]: 250 mg/L
- MIC [3, 24]: 250 mg/L
- MIC [3, 25]: 250 mg/L
- MIC [3, 26]: 250 mg/L
- MIC [3, 27]: 250 mg/L
- MIC [3, 28]: 125 mg/L
- MIC [3, 29]: 250 mg/L
- MIC [3, 30]: 250 mg/L
- MIC [3, 31]: 250 mg/L
- MIC [3, 32]: 250 mg/L
- MIC [3, 33]: 250 mg/L
- MIC [3, 34]: 250 mg/L

Compound: Cc1c(O)c(=O)ccn1C [ApoL1, 3-hydroxy-1,2-dimethyl-4(1H)-pyridone]
- time-kill course of CFU/mL ([1]; 0.5×MIC): reduced level of CFU/ml at 2 and 6 hours but did increase in CFU at 24 hours to levels as seen in the untreated sample
- effect on CFU/ml (time-kill, FIG. 13) ([1]; 1×MIC): slight inhibitory effect
- time-kill course of CFU/mL ([1]; 1×MIC): reduced level of CFU/ml at 2 and 6 hours but did increase in CFU at 24 hours to levels as seen in the untreated sample
- effect on CFU/ml (time-kill, FIG. 13) ([1]; 2×MIC): stronger inhibitory effect
- time-kill course of CFU/mL ([1]; 2×MIC): did not have a substantial increase in CFU/ml over the 24 hour period
- synergy with rifampin, checkerboard [2]: moderate degrees of synergy
- MIC (Acinetobacter baumannii; [4]): 64 mg/L
- MIC (Acinetobacter baumannii; [5]): 125 mg/L
- MIC (K. pneumonia; [6]): 250 mg/L
- MIC (K. pneumonia; [7]): 250 mg/L
- MIC (P. aeruginosa; [8]): 500 mg/L
- MIC (P. aeruginosa; [9]): 125 mg/L
- MIC (E. coli; [10]): 500 mg/L
- MIC (E. coli; [11]): 250 mg/L
- MIC of Iron Chelators ([3]; AB967): NG
- MIC of Iron Chelators ([3]; AB2828): NG
- MIC of Iron Chelators ([3]; AB3340): NG
- MIC of Iron Chelators ([3]; AB3560): NG
- MIC of Iron Chelators ([3]; AB3785): NG
- MIC of Iron Chelators ([3]; AB3917): NG
- MIC of Iron Chelators ([3]; AB3927): NG
- MIC [3, 12]: 125 mg/L
- MIC [3, 13]: 125 mg/L
- MIC [3, 14]: 125 mg/L
- MIC [3, 15]: 125 mg/L
- MIC [3, 16]: 125 mg/L
- MIC [3, 17]: 125 mg/L
- MIC [3, 18]: 125 mg/L
- MIC [3, 19]: 125 mg/L
- MIC [3, 20]: 125 mg/L
- MIC [3, 21]: 125 mg/L
- MIC [3, 22]: 125 mg/L
- MIC [3, 23]: 125 mg/L
- MIC [3, 24]: 125 mg/L
- MIC [3, 25]: 250 mg/L
- MIC [3, 26]: 64 mg/L
- MIC [3, 27]: 125 mg/L
- MIC [3, 28]: 125 mg/L
- MIC [3, 29]: 125 mg/L
- MIC [3, 30]: 125 mg/L
- MIC [3, 31]: 125 mg/L
- MIC [3, 32]: 125 mg/L
- MIC [3, 33]: 125 mg/L
- MIC [3, 34]: 64 mg/L
